Laboratory results from patent publication US9440977B2, “Compositions, uses and methods for their preparation” (priority 2013, dated 2016).

Key:
Test in all cases: JAK activity, Invitrogen SelectScreen Biochemical Kinase Profiling, Z'-LYTE
Conditions in all cases: ATP concentration at Km
JAK3 = molecular target: T1, JAK3 (Homo sapiens, UniProt P52333)
T1 sequence (P52333 1-1124): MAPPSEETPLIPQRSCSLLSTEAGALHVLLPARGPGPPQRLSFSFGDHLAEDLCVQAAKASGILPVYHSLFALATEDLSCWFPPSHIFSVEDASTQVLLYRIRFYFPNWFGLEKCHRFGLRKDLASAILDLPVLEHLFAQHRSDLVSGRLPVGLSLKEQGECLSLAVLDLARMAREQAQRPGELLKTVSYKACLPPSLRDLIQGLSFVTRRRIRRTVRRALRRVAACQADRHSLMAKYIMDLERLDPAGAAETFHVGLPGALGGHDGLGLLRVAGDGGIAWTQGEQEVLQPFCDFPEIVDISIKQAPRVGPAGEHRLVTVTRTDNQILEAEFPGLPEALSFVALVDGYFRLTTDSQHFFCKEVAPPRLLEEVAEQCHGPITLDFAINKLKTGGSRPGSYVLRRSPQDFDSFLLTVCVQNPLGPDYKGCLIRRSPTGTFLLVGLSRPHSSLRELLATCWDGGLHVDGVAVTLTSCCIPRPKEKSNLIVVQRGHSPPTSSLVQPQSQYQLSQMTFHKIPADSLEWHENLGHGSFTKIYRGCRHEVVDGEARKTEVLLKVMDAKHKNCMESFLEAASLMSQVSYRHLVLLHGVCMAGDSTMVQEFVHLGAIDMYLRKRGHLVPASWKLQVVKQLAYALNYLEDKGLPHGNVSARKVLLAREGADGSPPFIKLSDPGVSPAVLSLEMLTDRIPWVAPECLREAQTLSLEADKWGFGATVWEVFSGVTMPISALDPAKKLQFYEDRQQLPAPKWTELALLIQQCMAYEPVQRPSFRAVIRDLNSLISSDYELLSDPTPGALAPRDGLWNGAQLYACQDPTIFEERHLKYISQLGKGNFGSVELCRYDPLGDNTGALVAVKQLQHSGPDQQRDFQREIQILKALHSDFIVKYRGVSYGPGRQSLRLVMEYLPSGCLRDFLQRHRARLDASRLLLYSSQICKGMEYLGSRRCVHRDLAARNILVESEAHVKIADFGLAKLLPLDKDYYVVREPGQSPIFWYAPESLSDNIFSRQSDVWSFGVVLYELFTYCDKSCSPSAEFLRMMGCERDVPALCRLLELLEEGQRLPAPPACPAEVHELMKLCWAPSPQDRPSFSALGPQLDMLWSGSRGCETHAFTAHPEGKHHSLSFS
Protocol: (§1) JAK activity was determined using Invitrogen's SelectScreen® Biochemical Kinase Profiling Service using the Z'-LYTE Screening Protocol and Assay Conditions (ATP concentration at Km).

JAK1 = JAK1 (Homo sapiens, UniProt P23458)
Protocol: as §1

JAK2 = JAK2 (Homo sapiens, UniProt O60674)
Protocol: as §1

Chain of JAK1 (P23458 whole entry): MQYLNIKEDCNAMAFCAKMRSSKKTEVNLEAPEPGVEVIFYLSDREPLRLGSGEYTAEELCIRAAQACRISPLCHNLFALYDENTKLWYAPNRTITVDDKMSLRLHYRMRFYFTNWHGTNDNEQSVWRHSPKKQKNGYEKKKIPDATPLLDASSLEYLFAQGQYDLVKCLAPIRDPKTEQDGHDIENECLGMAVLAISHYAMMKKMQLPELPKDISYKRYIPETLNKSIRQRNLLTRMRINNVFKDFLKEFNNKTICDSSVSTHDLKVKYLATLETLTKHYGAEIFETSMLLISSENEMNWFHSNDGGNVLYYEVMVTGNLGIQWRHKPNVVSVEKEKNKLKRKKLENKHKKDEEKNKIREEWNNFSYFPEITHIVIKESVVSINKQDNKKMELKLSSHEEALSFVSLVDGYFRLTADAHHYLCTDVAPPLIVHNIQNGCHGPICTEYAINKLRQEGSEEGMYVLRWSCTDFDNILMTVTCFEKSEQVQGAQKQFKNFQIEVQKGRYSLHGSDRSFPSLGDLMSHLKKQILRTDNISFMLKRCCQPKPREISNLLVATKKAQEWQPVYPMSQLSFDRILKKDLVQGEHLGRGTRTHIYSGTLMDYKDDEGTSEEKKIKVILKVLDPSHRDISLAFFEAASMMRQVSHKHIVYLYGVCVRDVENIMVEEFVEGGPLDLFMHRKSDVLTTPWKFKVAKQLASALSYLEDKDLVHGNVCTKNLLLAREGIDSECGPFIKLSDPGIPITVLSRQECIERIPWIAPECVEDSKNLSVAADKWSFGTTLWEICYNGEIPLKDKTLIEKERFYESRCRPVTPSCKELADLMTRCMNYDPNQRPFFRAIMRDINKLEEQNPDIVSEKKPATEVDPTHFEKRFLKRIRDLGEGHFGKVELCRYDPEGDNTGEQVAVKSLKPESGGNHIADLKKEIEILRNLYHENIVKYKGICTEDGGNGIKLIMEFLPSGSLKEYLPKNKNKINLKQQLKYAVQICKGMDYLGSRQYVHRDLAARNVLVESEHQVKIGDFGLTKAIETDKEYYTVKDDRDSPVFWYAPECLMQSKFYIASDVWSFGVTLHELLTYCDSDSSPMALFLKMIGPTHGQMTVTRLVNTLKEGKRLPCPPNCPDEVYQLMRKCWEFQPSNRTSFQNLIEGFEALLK
Chain of JAK2 (O60674 whole entry): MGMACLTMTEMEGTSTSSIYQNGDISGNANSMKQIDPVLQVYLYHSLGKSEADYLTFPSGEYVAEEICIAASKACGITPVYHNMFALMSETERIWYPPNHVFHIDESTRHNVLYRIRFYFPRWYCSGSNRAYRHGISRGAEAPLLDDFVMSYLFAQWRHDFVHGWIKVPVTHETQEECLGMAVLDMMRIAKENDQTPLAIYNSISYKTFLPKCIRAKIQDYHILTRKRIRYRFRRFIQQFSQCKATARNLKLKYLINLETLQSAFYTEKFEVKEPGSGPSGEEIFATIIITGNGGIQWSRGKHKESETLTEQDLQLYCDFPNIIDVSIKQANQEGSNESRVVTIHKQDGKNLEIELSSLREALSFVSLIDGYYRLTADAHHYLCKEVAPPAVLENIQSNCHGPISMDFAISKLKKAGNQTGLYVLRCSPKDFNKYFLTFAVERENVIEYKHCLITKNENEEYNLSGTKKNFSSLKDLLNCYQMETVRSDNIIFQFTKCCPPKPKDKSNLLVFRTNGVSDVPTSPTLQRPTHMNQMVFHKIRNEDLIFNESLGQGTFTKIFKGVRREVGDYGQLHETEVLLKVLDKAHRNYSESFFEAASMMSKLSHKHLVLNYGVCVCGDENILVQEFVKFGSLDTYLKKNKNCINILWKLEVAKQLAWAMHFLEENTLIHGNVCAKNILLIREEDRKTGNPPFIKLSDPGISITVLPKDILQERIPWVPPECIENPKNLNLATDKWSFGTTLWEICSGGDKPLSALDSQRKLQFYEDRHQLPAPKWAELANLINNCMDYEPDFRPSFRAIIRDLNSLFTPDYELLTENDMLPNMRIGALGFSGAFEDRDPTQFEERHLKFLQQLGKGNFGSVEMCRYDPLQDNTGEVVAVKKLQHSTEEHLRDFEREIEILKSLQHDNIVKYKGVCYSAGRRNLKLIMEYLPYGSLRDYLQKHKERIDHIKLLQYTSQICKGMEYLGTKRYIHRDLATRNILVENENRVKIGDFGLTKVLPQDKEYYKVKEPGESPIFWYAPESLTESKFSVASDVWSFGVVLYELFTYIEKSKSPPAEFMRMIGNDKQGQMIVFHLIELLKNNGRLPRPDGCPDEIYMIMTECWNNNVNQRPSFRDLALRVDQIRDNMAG

In the case of `N#CCC(C1CCCC1)n1cc2c(n1)C(=O)c1c[nH]c3nccc-2c13` (stereo not drawn) [Example 1, 3-cyclopentyl-3-{7-oxo-4,5,10,12-tetraazatetracyclo[6.6.1.0^2,6.0^11,15]pentadeca-1(15),2,5,8,11,13-hexaen-4-yl}propanenitrile], the IC50 (JAK3) is reported as > 0.1 µM, the IC50 (JAK1) is reported as 0.01 to 0.1 µM and the IC50 (JAK2) is reported as < 0.01 µM.

`N#CCC(C1CCCC1)n1ncc2c1C(=O)c1c[nH]c3nccc-2c13` (stereo not drawn) [Example 2, 3-cyclopentyl-3-{7-oxo-4,5,10,12-tetraazatetracyclo[6.6.1.0^2,6.0^11,15]pentadeca-1(15),2(6),3,8,11,13-hexaen-5-yl}propanenitrile] was tested, and the IC50 (JAK3) was > 0.1 µM, the IC50 (JAK1) was > 0.1 µM and the IC50 (JAK2) was 0.01 to 0.1 µM.

In the case of `N#CC[C@H](C1CCCC1)n1cc2c(n1)C(=O)c1c[nH]c3nccc-2c13` [Example 4, (3R)-3-cyclopentyl-3-{7-oxo-4,5,10,12-tetraazatetracyclo[6.6.1.0^2,6.0^11,15]pentadeca-1(15),2,5,8,11,13-hexaen-4-yl}propanenitrile], the IC50 (JAK3) is reported as > 0.1 µM, the IC50 (JAK1) is reported as 0.01 to 0.1 µM and the IC50 (JAK2) is reported as < 0.01 µM.
